This passage reports inhibition and IC50 results from patent publication US9718817B2, “Aryl and heteroaryl ether compounds as ROR gamma modulators” (Glenmark Pharmaceuticals S.A., priority 2014, dated 2017).

SMILES strings stand for the structures.

This assay addresses T1, GST-tagged ROR gamma ligand binding domain (LBD) (Homo sapiens, UniProt P51449).
T1 construct: purchased Invitrogen
T1 sequence (P51449 269-508 limits assumed): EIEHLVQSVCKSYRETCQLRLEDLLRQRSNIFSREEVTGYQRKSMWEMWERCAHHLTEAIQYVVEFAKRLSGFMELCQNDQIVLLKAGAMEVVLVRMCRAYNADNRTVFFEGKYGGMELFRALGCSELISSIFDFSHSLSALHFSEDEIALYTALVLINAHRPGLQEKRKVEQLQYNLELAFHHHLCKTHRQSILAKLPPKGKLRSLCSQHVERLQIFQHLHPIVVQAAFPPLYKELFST
The assay is described as follows: TR-FRET assay for ROR gamma (LanthaScreen co-activator peptide recruitment). The format is biochemical. The conditions noted are these: for inhibition at 1 µM: compound 1 μM; for inhibition at 1 µM / inhibition at 10 µM: TR-FRET ratio 520/495, percent of control; for inhibition at 10 µM: compound 10 μM; for IC50: class symbols, from dose response curve. From the text:
The compounds described herein were screened for ROR gamma modulator activity using the TR-FRET assay by Lantha Screen as described in JBC 2011, 286, 26: 22707-10; and Drug Metabolism and Disposition 2009, 37, 10: 2069-78.
The assay is based on the principle that binding of the agonist to the ROR gamma causes a conformational change around helix 12 in the ligand binding domain, resulting in higher affinity for the co-activator peptide. ROR gamma being constitutively active, the Fluorescein-D22 co-activator peptide used in the assay is recruited in the absence of a ligand. Binding of the co-activator peptide, causes an increase in the TR-FRET signal while binding of an antagonist decreases the recruitment of the co-activator peptide, causing a decrease in the TR-FRET signal compared to control with no compound. The assay was performed using a two-step procedure, pre-incubation step with the compound followed by the detection step on addition of the anti-GST tagged terbium (Tb) and fluorescein tagged fluorophores as the acceptor.
Test compounds or reference compounds such as T0901317 (Calbiochem) were dissolved in dimethylsulfoxide (DMSO) to prepare 10.0 mM stock solutions and diluted to the desired concentration. The final concentration of DMSO in the reaction was 4% (v/v). The assay mixture was prepared by mixing 10 nM of the GST-tagged ROR gamma ligand binding domain (LBD) in the assay buffer containing 25 mM HEPES (pH 7.4), 100 mM NaCl, 5 mM DTT and 0.01% BSA with or without the desired concentration of the compound. The reaction was incubated at 22° C. for 1 hour. The pre-incubation step was terminated by addition of the detection mixture containing 300 nM Fluorescein-D22 co-activator peptide and 10 nM lantha screen Tb-anti GST antibody into the reaction mixture. After shaking for 5 minutes the reaction was further incubated for 1 hour at room temperature and read at 4° C. on an Infinite F500 reader as per the kit instructions (Invitrogen). The inhibition of test compound was calculated based on the TR-FRET ratio of 520/495. The activity was calculated as a percent of control reaction. IC50 values were calculated from dose response curve by nonlinear regression analysis using GraphPad Prism software.
Percentage inhibition at concentrations of 1.0 μM and 10.0 μM are given in the table along with IC50 (nM) details for selected examples.
In general terms: In TR-FRET formats the signal depends on donor and acceptor labels being close together.

The term inhibition denotes the drop in the measured response relative to a control, in per cent. The IC50 is the concentration that gives 50% inhibition. Read a high IC50 as a need for much substance.

As for `CCS(=O)(=O)c1ccc(CC(=O)Nc2ccc(OC3(c4ccc(Cl)c(F)c4)CCN(C)CC3)cc2)cc1` [Example 44, N-{4-[4-(4-Chloro-3-fluoro-phenyl)-1-methyl-piperidin-4-yloxy]-phenyl}-2-(4-ethanesulfonyl-phenyl)-acetamide], the inhibition at 1 µM turned out to be 44.6% and the inhibition at 10 µM stood at 70%.
Take `CCS(=O)(=O)c1ccc(CC(=O)Nc2ccc(OC3(c4ccc(Cl)c(F)c4)COC3)cc2)cc1` [Example 45, N-{4-[3-(4-Chloro-3-fluoro-phenyl)-oxetan-3-yloxy]-phenyl}-2-(4-ethanesulfonyl-phenyl)-acetamide]: the IC50 was less than 50 nM, the inhibition at 1 µM was found to be 76.8% and the inhibition at 10 µM came out at 85.7%.
The like results for `CCS(=O)(=O)c1ccc(CC(=O)Nc2ccc(OC3(c4ccc(Cl)c(Cl)c4)COC3)cc2)cc1` [Example 46, N-{4-[3-(3,4-Dichlorophenyl)-oxetan-3-yloxy]-phenyl}-2-(4-ethanesulfonyl-phenyl)-acetamide] were, in that order, more than 100 nM, 68.1% and 86.3%.
Take `CCS(=O)(=O)c1ccc(CC(=O)Nc2ccc(OC3(c4ccc(Cl)cc4Cl)COC3)cc2)cc1` [Example 47, N-{4-[3-(2,4-Dichlorophenyl)-oxetan-3-yloxy]-phenyl}-2-(4-ethanesulfonyl-phenyl)-acetamide]: the IC50 is less than 50 nM, the inhibition at 1 µM turned out to be 90.3% and the inhibition at 10 µM was 93.2%.
On to `CCS(=O)(=O)c1ccc(CC(=O)Nc2ccc(OC3(c4ccc(C(F)(F)F)c(F)c4)COC3)cc2)cc1` [Example 48, (4-Ethanesulfonyl-phenyl)-N-{4-[3-(3-fluoro-4-trifluoromethyl-phenyl)-oxetan-3-yloxy]-phenyl}-acetamide], for which the inhibition at 1 µM was determined as 60.3% and the inhibition at 10 µM was determined as 77.4%.
Take `CCS(=O)(=O)c1ccc(CC(=O)Nc2ccc(OC3(c4ccc(Cl)c(Cl)c4)CC3)cc2)cc1` [Example 49, N-{4-[1-(3,4-Dichloro-phenyl)-cyclopropoxy]-phenyl}-2-(4-ethanesulfonyl-phenyl)-acetamide]: the IC50 lay within 50 to 100 nM, the inhibition at 1 µM came to 69.1% and the inhibition at 10 µM stood at 80%.
The like results for `CCS(=O)(=O)c1ccc(CC(=O)Nc2ccc(OC3(c4ccc(Cl)c(F)c4)CC3)cc2)cc1` [Example 50, N-{4-[1-(4-Chloro-3-fluoro-phenyl)-cyclopropoxy]-phenyl}-2-(4-ethanesulfonyl-phenyl)-acetamide] were, in that order, less than 50 nM, 81.3% and 87.9%.
`CCS(=O)(=O)c1ccc(CC(=O)Nc2ccc(OC3(c4ccc(Cl)cc4F)CC3)cc2)cc1` [Example 51, N-{4-[1-(4-Chloro-2-fluoro-phenyl)-cyclopropoxy]-phenyl}-2-(4-ethanesulfonyl-phenyl)-acetamide]: the IC50 was less than 50 nM, the inhibition at 1 µM came out at 85.9% and the inhibition at 10 µM is 87.7%.
For the compound `CCS(=O)(=O)c1ccc(CC(=O)Nc2ccc(OC3(c4ccc(Cl)c(F)c4)CC3)nc2)cc1` [Example 52, N-{6-[1-(4-Chloro-3-fluoro-phenyl)-cyclopropoxy]-pyridin-3-yl}-2-(4-ethanesulfonyl-phenyl)-acetamide], the inhibition at 1 µM stood at 63.7% and the inhibition at 10 µM was determined as 83.8%.
For `CCS(=O)(=O)c1ccc(CC(=O)Nc2ccc(OC3(c4ccc(Cl)c(Cl)c4)CC3)nc2)cc1` [Example 53, N-{6-[1-(3,4-Dichloro-phenyl)-cyclopropoxy]-pyridin-3-yl}-2-(4-ethanesulfonyl-phenyl)-acetamide], in that order: 52.6% and 76.5%.
In the case of `CCS(=O)(=O)c1ccc(CC(=O)Nc2ccc(OC3(c4ccc(Cl)c(F)c4)CCC3)nc2)cc1` [Example 54, N-{6-[1-(4-Chloro-3-fluoro-phenyl)-cyclobutoxy]-pyridin-3-yl}-2-(4-ethanesulfonyl-phenyl)-acetamide], the IC50 is less than 50 nM, the inhibition at 1 µM is 92% and the inhibition at 10 µM is 93.7%.
For `CCS(=O)(=O)c1ccc(CC(=O)Nc2ccc(OC3(c4ccc(Cl)c(F)c4)CCOCC3)nc2)cc1` [Example 55, N-{6-[4-(4-Chloro-3-fluoro-phenyl)-tetrahydro-pyran-4-yloxy]-pyridin-3-yl}-2-(4-ethanesulfonyl-phenyl)-acetamide], the inhibition at 1 µM worked out at 75.5% and the inhibition at 10 µM was 80.3%.
Turning to `CCS(=O)(=O)c1ccc(CC(=O)Nc2ccc(OC(C)(C)c3ccc(Cl)cc3F)nc2)cc1` [Example 56, N-{6-[1-(4-Chloro-2-fluoro-phenyl)-1-methyl-ethoxy]-pyridin-3-yl}-2-(4-ethanesulfonyl-phenyl)-acetamide], the IC50 was less than 50 nM, the inhibition at 1 µM is 83.1% and the inhibition at 10 µM came to 91.3%.
For `CCS(=O)(=O)c1ccc(CC(=O)Nc2ccc(OC(C)(C)c3ccc(F)cc3Cl)nc2)cc1` [Example 57, N-{6-[1-(2-Chloro-4-fluoro-phenyl)-1-methyl-ethoxy]-pyridin-3-yl}-2-(4-ethanesulfonyl-phenyl)-acetamide], in that order: 50 to 100 nM, 78% and 91.3%.
For `CCS(=O)(=O)c1ccc(CC(=O)Nc2ccc(OC(C)(C)c3ccc(Cl)cc3Cl)nc2)cc1` [Example 58, N-(6-{[2-(2,4-Dichlorophenyl)propan-2-yl]oxy}pyridin-3-yl)-2-[4-(ethylsulfonyl)phenyl]acetamide], the IC50 was less than 50 nM, the inhibition at 1 µM was 83.7% and the inhibition at 10 µM was found to be 86.7%.
The like results for `CCS(=O)(=O)c1ccc(CC(=O)Nc2ccc(OC(C)(C)c3ccc(Cl)c(Cl)c3)nc2)cc1` [Example 59, N-{6-[1-(3,4-Dichloro-phenyl)-1-methyl-ethoxy]-pyridin-3-yl}-2-(4-ethanesulfonyl-phenyl)-acetamide] were, in that order, less than 50 nM, 71.8% and 86.7%.
For `CCS(=O)(=O)c1ccc(CC(=O)Nc2ccc(C#CCOc3ccc(Cl)cc3Cl)cc2)cc1` [Example 60, N-{4-[3-(2,4-Dichlorophenoxy)prop-1-yn-1-yl]phenyl}-2-[4-(ethylsulfonyl)phenyl]acetamide], in that order: more than 100 nM, 92.6% and 90.4%.
For `CCS(=O)(=O)c1ccc(CC(=O)Nc2ccc(C#CCOc3ccc(Cl)c(Cl)c3)cc2)cc1` [Example 61, N-{4-[3-(3,4-Dichlorophenoxy)prop-1-yn-1-yl]phenyl}-2-[4-(ethylsulfonyl)phenyl]acetamide], in that order: more than 100 nM, 85.5% and 92.9%.
Take `CCS(=O)(=O)c1ccc(CC(=O)Nc2ccc(C#CC(C)(C)Oc3ccc(Cl)c(Cl)c3)cc2)cc1` [Example 62, N-{4-[3-(3,4-Dichlorophenoxy)-3-methylbut-1-yn-1-yl]phenyl}-2-[4-(ethylsulfonyl)phenyl]acetamide]: the IC50 is less than 50 nM, the inhibition at 1 µM was 86.3% and the inhibition at 10 µM was determined as 90.2%.
As for `CCS(=O)(=O)c1ccc(CC(=O)Nc2ccc(C#CC(C)(C)Oc3ccc(Cl)cc3Cl)cc2)cc1` [Example 63, N-{4-[3-(2,4-Dichloro-phenoxy)-3-methyl-but-1-yn-1-yl]-phenyl}-2-(4-ethanesulfonyl-phenyl)-acetamide], the IC50 is less than 50 nM, the inhibition at 1 µM was 80.5% and the inhibition at 10 µM came to 84.5%.
`CCS(=O)(=O)c1ccc(CC(=O)Nc2ccc(C#CC(C)(C)Oc3ccc(Cl)cc3)cc2)cc1` [Example 64, N-{4-[3-(4-Chloro-phenoxy)-3-methyl-but-1-yn-1-yl]-phenyl}-2-(4-ethanesulfonyl-phenyl)-acetamide]: the IC50 is less than 50 nM, the inhibition at 1 µM came out at 82.2% and the inhibition at 10 µM was 84.2%.
